Assay results from PubChem BioAssay (NCI).
Values joined by “and” are separate entries in the source; they are usually repeats but may differ in a detail not shown here. Equal entries are not always repeated.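 Cultured in 96-well plates, cells were exposed to test compound for 48 hours across five concentrations. The concentration for 50% growth inhibition is given as GI50. TGI marks complete inhibition of growth.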

How the values were obtained:
Assay in all cases: NCI-60 cell line screen, 48 h
K-562 leukemia = system: K-562 leukemia
UACC-257 melanoma = system: UACC-257 melanoma
A498 renal = system: A498 renal
NCI/ADR-RES ovarian = system: NCI/ADR-RES ovarian
SW-620 colon = system: SW-620 colon
SK-MEL-28 melanoma = system: SK-MEL-28 melanoma
MALME-3M melanoma = system: MALME-3M melanoma
SNB-75 CNS = system: SNB-75 CNS
SF-268 CNS = system: SF-268 CNS
NCI-H23 lung = system: NCI-H23 lung

Structure (SMILES)	GI50 (K-562 leukemia) [µM]	TGI (K-562 leukemia) [µM]	GI50 (UACC-257 melanoma) [µM]	TGI (UACC-257 melanoma)	GI50 (A498 renal) [µM]	TGI (A498 renal) [µM]	GI50 (NCI/ADR-RES ovarian) [µM]	TGI (NCI/ADR-RES ovarian)	GI50 (SW-620 colon) [µM]	TGI (SW-620 colon) [µM]	GI50 (SK-MEL-28 melanoma) [µM]	TGI (SK-MEL-28 melanoma) [µM]	GI50 (MALME-3M melanoma) [µM]	TGI (MALME-3M melanoma) [µM]	GI50 (SNB-75 CNS) [µM]	TGI (SNB-75 CNS)	GI50 (SF-268 CNS) [µM]	TGI (SF-268 CNS)	GI50 (NCI-H23 lung) [µM]	TGI (NCI-H23 lung) [µM]
c1cc2c(cn1)Nc1ccncc1S2	55.4	> 100	71.5	> 100 µM	19.5	55.4	37.1	> 100 µM	35.4	> 100	> 100	> 100	> 100	> 100	43.9	> 100 µM	30.5	> 100 µM	43.4	> 100
O=C1/C=C/[C@@H](O)[C@@H]2C[C@@H](O)C[C@H]2/C=C/CCC[C@H](C(F)(F)F)O1	0.336	> 69.1	0.053	1.01 µM	0.0705	0.715	0.408	11.4 µM	0.142	0.331	0.096	0.65	0.0437	0.292	0.0603	> 100 µM	0.403	> 77.8 µM	0.285	4.17
CCn1c(-c2nonc2N)nc2cncc(C(=O)N3CC[C@H](N)C3)c21	> 25	> 25	> 25	> 25 µM	1.2	> 25	> 25	> 25 µM	> 25	> 25	> 25	> 25	> 25	> 25	0.319	> 7.84 µM	> 19.5	> 25 µM	> 25	> 25
COC(=O)c1ccc(NC(=O)Oc2ccc(N(CCCl)CCCl)cc2)cc1	4.85	> 100	7.73	99.7 µM	3.35	14.9	6.54	53.8 µM	4.89	> 100	30.7	> 100	18.4	71.1	6.16	54.5 µM	1.94	18.5 µM	4.75	> 100
CCCCCCCCCCCCCC[C@@H](O)[C@H]1CC[C@H]([C@H]2CC[C@H]([C@H](O)CCCCCC[C@@H](O)CC3=C[C@H](C)OC3=O)O2)O1	1.47	> 25	1.62	6.01 µM and > 25 µM	3.27	> 25	0.676	2.95 µM and > 25 µM	2.44	> 25	2.9	> 25		> 25	1.7	4.95 µM and > 25 µM	1.69	5.04 µM and > 25 µM		> 25
CN1CCN(CCCOc2cccc3nc(Nc4ccc(Cl)c(C(F)(F)F)c4)ccc23)CC1	1.62	3.34	1.72	3.5 µM	1.68	3.54	1.73	3.37 µM	1.89	3.83	1.39	2.81	1.75	3.45	1.52	3.78 µM	1.85	3.66 µM	1.78	3.42
